Measured values taken from patent US4276304A, “Novel benzylalcohol derivative and process for preparing the same” (priority 1979, dated 1981).
“And” between values parts separate entries of the source, which are not always exact repeats. Equal entries are not always repeated. Where two headings read alike, the source gives them in different places.

Legend:
blood sugar [1] = test: Blood sugar-lowering activity (oral test compound, subcutaneous glucose load); type: in vivo, male ddY mice; settings: for minimal effective dose: Mus musculus, 1 h, read-out: Minimum effective dose (blood sugar-lowering activity)
Protocol: For example, when the blood sugar-lowering activity was estimated by orally administering a test compound to mice immediately before subcutaneous injection of glucose, said activity of the compound of the present invention was about 100 to about 1000 times stronger than that of Phenformin (Chemical name: 1-phenethylbiguanide).
An aqueous solution or suspension (10 ml/kg) of a test compound was administered orally through a stomach tube to a group of male ddY mice (each group consisting of five mice) which fasted for 20 hours. A physiological saline solution (10 ml/kg) containing 10 w/v % glucose was injected subcutaneously to the mice immediately after the oral administration of the test compound. One hour after the injection of glucose, 0.02 ml of blood was collected from the tail vein of the mice. Then, the amount of glucose in the blood sample was estimated by the glucose oxidase method (H. U. Bergmeyer & E. Bernt, "Methods of Enzymatic Analysis", H. U. Bergmeyer (Ed.), Acadamic Press, New York & London, 1963, page 123). The blood sugar-lowering activity of the test compound was calculated by the following formula: [formula] Further, on the basis of the potency ratio calculated above, the activity of the test compound was expressed as follows: […]

blood platelets = test: Preventive effect upon the aggregation of blood platelets (collagen-induced, platelet-rich plasma); type: cell-based, male Sprague-Dawley rats; settings: for inhibition at 100 µg/mL: Rattus norvegicus, Platelet
blood sugar [2] = settings: U.S. Pat. Nos. 4,032,575 and 4,131,686, Japanese Patent Publication No. 71428/1977; cited from earlier work
mice = test: Acute toxicity / maximum tolerance dose (intraperitoneal injection); type: in vivo; settings: 48 hours after intraperitoneal injection
Protocol: For example, the maximum tolerance dose (M.T.D.) of α-[(α,α-dimethyl-3,4-dimethoxyphenethylamino)methyl]-2-benzyloxybenzylalcohol oxalate and α-[(α,α-dimethyl-3,4-dimethoxyphenethylamino)methyl]-2-chlorobenzylalcohol hydrochloride which was estimated 48 hours after intraperitoneal injection thereof to a group of 4 mice was not less than 100 mg/kg.

[3] = 100 μg/ml, graded against acetylsalicylic acid 100 μg/ml
[4] = read-out: Inhibition (%) against platelet aggregation, A* (test compound group)
[5] = test compound 100 μg/ml, collagen, rat PRP

| Compound | Platelet aggregation inhibiting activity (blood platelets; [3]) | Minimum effective dose (blood sugar-lowering activity) (blood sugar [1]; oral, mice) [mg/kg] | Inhibition (%) against platelet aggregation, A* (test compound group) (blood platelets; [5]) [%] | further results |
| --- | --- | --- | --- | --- |
| COc1ccc(CC(C)(C)NCC(O)c2ccccc2Cl)cc1.Cl (stereo not drawn) [Test compound 5, α-[(α,α-dimethyl-4-methoxyphenethylamino)-methyl]-2-chlorobenzylalcohol hydrochloride] | – | – | – | minimal effective dose (blood sugar [1]; po): 0.1 mg/kg |
| CC(=O)Oc1ccccc1C(=O)O [acetylsalicylic acid, reference compound] | – | – | – | Inhibition (%) against platelet aggregation, B** (acetylsalicylic acid group) (blood platelets; acetylsalicylic acid 100 μg/ml, comparison group for the test compound of the same line): 31% and 58% and 50% and 56% and 54% |
| COc1ccc(CC(C)(C)NCC(O)c2ccccc2O)cc1 (centres unmarked) [compound 1] | ++ | – | – | minimal effective dose (blood sugar [1]; po): 0.3 mg/kg; inhibition at 100 µg/mL (blood platelets; [4]): 90% |
| COc1ccc(CC(C)(C)NCC(O)c2ccccc2OCc2ccccc2)cc1 (centres unmarked) [compound 2] | – | – | – | minimal effective dose (blood sugar [1]; oral, mice): 1 mg/kg; inhibition at 100 µg/mL (blood platelets; 100 μg/ml, graded against acetylsalicylic acid 100 μg/ml, read-out: Platelet aggregation inhibiting activity): > 10%; inhibition at 100 µg/mL (blood platelets; test compound 100 μg/ml, collagen, rat PRP, read-out: Inhibition (%) against platelet aggregation, A* (test compound group)): 27% |
| COc1ccc(CC(C)(C)NCC(O)c2ccccc2OC)cc1 (centres unmarked) [compound 3] | ++ | – | – | minimal effective dose (blood sugar [1]; po): 0.1 mg/kg; inhibition at 100 µg/mL (blood platelets; [4]): 80% |
| CCCCOc1ccccc1C(O)CNC(C)(C)Cc1ccc(OC)cc1 (centres unmarked) [compound 4] | – | – | – | minimal effective dose (blood sugar [1]; oral, mice): 0.3 mg/kg |
| COc1ccc(CCNCC(O)c2ccccc2OCc2ccccc2)cc1OC (stereo not drawn) [α-[(3,4-dimethoxyphenethylamino)methyl]-2-benzyloxybenzylalcohol] | – | – | – | blood sugar-lowering activity (in words) (blood sugar [2]): show a blood sugar-lowering activity |
| COc1ccc(CCNCC(O)c2ccccc2O)cc1OC (stereo not drawn) [α-[(3,4-dimethoxyphenethylamino)methyl]-2-hydroxybenzylalcohol, reference compound] | – | – | – | blood sugar-lowering activity (in words) (blood sugar [2]): show a blood sugar-lowering activity; preventive effect upon the aggregation of blood platelets (in words) (blood platelets): no substantial preventive effect |
| COc1ccc(CCNCC(O)c2ccccc2OC)cc1OC (stereo not drawn) [α-[(3,4-dimethoxyphenethylamino)methyl]-2-methoxybenzylalcohol, reference compound] | – | – | – | blood sugar-lowering activity (in words) (blood sugar [2]): show a blood sugar-lowering activity; preventive effect upon the aggregation of blood platelets (in words) (blood platelets): no substantial preventive effect |
| α-[(α,α-dimethyl-2,3,4-trimethoxyphenethylamino)methyl]- 2-benzyloxybenzylalcohol 1/2 oxalate [Test compound 12] | ++ | 1.0 | 85 | – |
| α-[(α,α-dimethyl-2,3,4-trimethoxyphenethylamino)methyl]- 2-chlorobenzylalcohol hydrochloride [Test compound 14] | ++ | 0.1 | 93 | – |
| α-[(α,α-dimethyl-2,3,4-trimethoxyphenethylamino)methyl]- 2-hydroxybenzylalcohol 1/2 oxalate [Test compound 11] | ++ | 1.0 | 59 | – |
| α-[(α,α-dimethyl-2,3,4-trimethoxyphenethylamino)methyl]- 2-methoxybenzylalcohol hydrochloride [Test compound 13] | + (not less than 10% inhibition of platelet aggregation but said percentage inhibition was not higher than that of acetylsalicylic acid (100 μg/ml)) | 1.0 | 37 | – |
| α-[(α,α-dimethyl-3,4-dimethoxyphenethylamino)methyl]-2-benzyloxybenzylalcohol oxalate [Test compound 7] | + (not less than 10% inhibition of platelet aggregation but said percentage inhibition was not higher than that of acetylsalicylic acid (100 μg/ml)) | 0.3 | 17 | maximum tolerance dose (M.T.D.) (mice): not less than 100 mg/kg |
| α-[(α,α-dimethyl-3,4-dimethoxyphenethylamino)methyl]-2-chlorobenzylalcohol hydrochloride [Test compound 10] | ++ | 1.0 | 84 | maximum tolerance dose (M.T.D.) (mice): not less than 100 mg/kg |
| α-[(α,α-dimethyl-3,4-dimethoxyphenethylamino)methyl]-2-hydroxybenzylalcohol 1/2 oxalate [Test compound 6] | ++ | 1.0 | – | – |
| α-[(α,α-dimethyl-3,4-dimethoxyphenethylamino)methyl]-2-methoxybenzylalcohol hydrochloride [Test compound 8] | ++ | 1.0 | 57 | – |
| α-[(α,α-dimethyl-3,4-dimethoxyphenethylamino)methyl]-2-n-butoxybenzylalcohol hydrochloride [Test compound 9] | + (not less than 10% inhibition of platelet aggregation but said percentage inhibition was not higher than that of acetylsalicylic acid (100 μg/ml)) | 1.0 | 33 | – |
| α-[(α,α-dimethyl-3,4-methylenedioxyphenethylamino)methyl]-2-benzyloxybenzylalcohol 1/2 oxalate [Test compound 16] | + (not less than 10% inhibition of platelet aggregation but said percentage inhibition was not higher than that of acetylsalicylic acid (100 μg/ml)) | 0.3 | 29 | – |
| α-[(α,α-dimethyl-3,4-methylenedioxyphenethylamino)methyl]-2-hydroxybenzylalcohol 1/2 oxalate [Test compound 15] | – | 5.0 | – | – |
| α-[(α,α-dimethyl-3,4-methylenedioxyphenethylamino)methyl]-2-methoxybenzylalcohol 1/2 succinate [Test compound 17] | – | 2.0 | – | – |
| α-[(α,α-dimethyl-4-methoxyphenethylamino)methyl]-2-benzyloxybenzylalcohol hydrochloride [Example 7] | ++ | 0.3 | 90 | – |
| α-[(α,α-dimethyl-4-methoxyphenethylamino)methyl]-2-hydroxybenzylalcohol 1/2 oxalate [Test compound 1] | + (not less than 10% inhibition of platelet aggregation but said percentage inhibition was not higher than that of acetylsalicylic acid (100 μg/ml)) | 0.3 | 22 | – |
| α-[(α,α-dimethyl-4-methoxyphenethylamino)methyl]-2-methoxybenzylalcohol 1/2 oxalate [Test compound 3] | + (not less than 10% inhibition of platelet aggregation but said percentage inhibition was not higher than that of acetylsalicylic acid (100 μg/ml)) | 1.0 | 57 | – |
| α-[(α,α-dimethyl-4-methoxyphenethylamino)methyl]-2-n-butoxybenzylalcohol hydrochloride [Test compound 4] | + (not less than 10% inhibition of platelet aggregation but said percentage inhibition was not higher than that of acetylsalicylic acid (100 μg/ml)) | 0.1 | 31 | – |
